Literature values as cited in patent publication US6969706B1, “Preserved pharmaceutical compositions comprising cyclodextrins” (Allergan, Inc., priority 2004, dated 2005).

Tested on: a number of pathogens
Conditions: HPβCD solutions; reported by Loftsson et al. 1992

Compound | preservative activity in the presence of 2-hydroxypropyl-β-cyclodextrin
benzalkonium chloride | did possess preservative activity
N=C(NCCCCCCNC(=N)NC(=N)Nc1ccc(Cl)cc1)NC(=N)Nc1ccc(Cl)cc1.O=C(O)[C@H](O)[C@@H](O)[C@H](O)[C@H](O)CO.O=C(O)[C@H](O)[C@@H](O)[C@H](O)[C@H](O)CO [chlorhexidine gluconate] | did possess preservative activity
COC(=O)c1ccc(O)cc1 [methylparaben] | significantly reduced preservative activity
CCCOC(=O)c1ccc(O)cc1 [propylparaben] | significantly reduced preservative activity
